Measurements from article PMC6479099, “Aminoguanidines: New leads for treatment of Giardia duodenalis infection” (International Journal for Parasitology: Drugs and Drug …, 2019).
Values after ≈ are worked out from the molar mass of the structure shown. Where two headings read alike, the source gives them in different places.

Columns and labels:
[1] = tested on: giardiasis; design: method as in Wright et al., 2003; settings: ref Wright et al., 2003; cited from earlier work
[2] = tested on: Giardia trophozoites (BAH2c2); assay: Proliferation of Giardia trophozoites (resazurin, 96 h); type: cell-based, Giardia duodenalis; settings: read-out: IC50prol, Assemblage A (50% inhibition in the proliferation assay)
Procedure: The effect of the compounds on the proliferation of Giardia trophozoites was determined following the protocol outlined above, with the following modifications. The number of trophozoites was decreased to 1000 per well and the cells were incubated in the presence of each compound for 96 h at 37 °C.
(§1) The IC50 of each compound was determined using a resazurin reduction assay, which measures the metabolic activity of cells, using the log (inhibitor) vs. normalised response – variable slope function in Graphpad Prism. The compounds were tested against an assemblage A (BAH2c2, 24 h) and an assemblage B (BAH12, 24 h) isolate (Table 1). […] The effect of the compounds on the proliferation of Giardia trophozoites (BAH2c2) was also determined.

[3] = tested on: Giardia duodenalis BAH2c2 strain, assemblage A; assay: Resazurin reduction assay, assemblage A isolate; type: cell-based; settings: for MLC (minimum lethal concentration), Assemblage A: concentration at which no metabolism of resazurin was observed; for IC50: Giardia duodenalis, 24 h, read-out: IC50, Assemblage A
Procedure: (§2) G. duodenalis (BAH2c2 and BAH12 strain) was cultivated according to the method of Clark and Diamond in Keister's modified TYI-S-33 medium, supplemented with heat inactivated foetal bovine serum (Hyclone™, Thermo Fisher Scientific, Scoresby, Victoria, Australia) at 37 °C in plastic 9 mL screw-capped test tubes (nunc, Thermo Fisher Scientific, Scoresby, Victoria, Australia). Subcultures were performed once a confluent monolayer was observed, approximately 2–3 times per week ([Clark and Diamond, 2002]).
(§3) The in-vitro compound efficacy was determined using a resazurin reduction assay as previously described ([Benere et al., 2007]). The media of confluent cultures was replaced with fresh media and the cultures were placed on ice for 40 min to detach trophozoites. Trophozoites were enumerated using a haemocytometer and 50 000 trophozoites were added to each test well of a 96 well plate. Doubling or tripling dilutions of the test compounds were added to wells beginning at 25 or 50 μM compound concentration (previously prepared in DMSO). Metronidazole and DMSO (vehicle only) were used as controls. Plates were incubated under anaerobic conditions, using anaerobic gas generating sachets, (AnaeroGen, Thermo Fisher Scientific, Scoresby, Victoria, Australia) for 24 h at 37 °C. After incubation the media was removed and replaced with an equal volume of warm PBS. Resazurin (Alamarblue, Thermo Fisher Scientific, Scoresby, Victoria, Australia) was then added at 10% of the total volume of the wells. Plates were further incubated (1.5 h) for colour development and absorbance read at 570 nm and 630 nm. The percentage resazurin reduction was then calculated using the following formula:((εoxi630 x A570) – (εoxi570 x A630))/((εred570 x C630)-([…])) x 100Where: εoxi630 = 34798, εoxi570 = 80586, A570 = absorbance at 570 nm, A630 = absorbance at 630 nm, εred570 = 155677, εred630 = 5494, C630 = absorbance of negative control well at 630 nm and C570 = absorbance of negative control well at 570 nm.
(§4) For the resazurin reduction assay the mean and standard error of the mean were determined with each assay completed in triplicate. The IC50 was calculated using the log (inhibitor) vs. normalised response – variable slope function in Graphpad Prism. For the adherence assay mean and standard error of the mean were calculated and data analysed using an unpaired t-test, relative to untreated control.
as §1
Absorbance was measured (630 and 570 nm), percent reduction of resazurin calculated and data presented as a percentage of the growth control. Treatment groups are: square - metronidazole; triangle –NCL 099; diamond - robenidine; and circle - NCL 062. Error ± SEM, n = 3. Data represents a typical experiment. Note the break in the x-axis indicates a change in the scale of drug concentration.

[4] = tested on: AT region of DNA; design: method as in Nguyen et al., 2002; settings: ref Nguyen et al., 2002; cited from earlier work
[5] = tested on: Giardia duodenalis trophozoites; assay: Modified adherence assay; type: cell-based; settings: 4 μM, 5 h exposure
Procedure: (§5) A second screening method, based on counting adherent trophozoites, was developed and used to validate the primary screen method, modified from earlier adherence assay protocols ([Crouch et al., 1986]). The assay was prepared in 24 well plates with plastic coverslips placed in the bottom. Trophozoites were prepared as above by placing on ice and ∼5 × 10^5 cells/mL were added to each well. Drugs prepared in DMSO were added at the required concentration, with the DMSO concentration never exceeding 1%. Assay plates were incubated for 5 h at 37 °C under anaerobic conditions, the media removed and cells adhering to the coverslips were fixed with glutaraldehyde or methanol. Once the coverslips were dry, cells were stained with a Romanowsky stain variant (Rapid stain), fixed to a glass slide and imaged at 10x or 100x magnification. Images (10x magnification) were processed with DotCount v1.2 software (http://reuter.mit.edu/, 2008–2012 ^© Martin Reuter) to count the number of cells present and data analysed using GraphPad Prism version 6.00 for Windows, GraphPad Software, La Jolla California USA, www.graphpad.com. Images (100x magnification) were assessed for obvious morphological changes.
The results for the in vitro drug efficacy studies were analysed using GraphPad Prism version 6.00 for Windows, GraphPad Software, La Jolla California USA, www.graphpad.com. For the resazurin reduction assay the mean and standard error of the mean were determined with each assay completed in triplicate. The IC50 was calculated using the log (inhibitor) vs. normalised response – variable slope function in Graphpad Prism. For the adherence assay mean and standard error of the mean were calculated and data analysed using an unpaired t-test, relative to untreated control.
Fig. 3 Inhibition of adherence of Giardia duodenalis by metronidazole (Mz), robenidine, NCL 062 and NCL 099. Cells were exposed to the compounds for 5 h before staining. Stained cells were imaged at 10x magnification and counted using DotCount™ software. Each assay was completed in triplicate and 5 images taken per sample. Top. Number of adherent trophozoites after exposure to 4 μM of each compound for 5 h; Bottom. An example of the Dotcount software identifying trophozoites at higher magnification. Left: stained trophozoites, Right: highlighted trophozoites identified by the Dotcount software. Each highlighted cell is counted individually. Error ± SEM. * p-value <0.05, ** p-value <0.0001.

[6] = tested on: Giardia duodenalis BAH12, assemblage B; assay: Resazurin reduction assay, assemblage B isolate; type: cell-based; settings: BAH12, 24 h; for IC50: Giardia duodenalis, resazurin metabolic assay
Procedure: as §2, §3, §4, §1

[7] = tested on: G. duodenalis trophozoites; assay: Giardia recovery assay; type: cell-based, Giardia duodenalis; settings: 5 h at 5x the IC50, counts at 24 and 48 h post exposure
Procedure: G. duodenalis trophozoites were harvested on ice as outlined above and 5 × 10^5 cells/mL were added to 1.5 mL centrifuge tubes. […] After exposure cells were collected by placing tubes on ice for 40 min followed by centrifugation at 900×g for 5 min. The supernatant was removed and cells were resuspended in 8 mL of fresh media (in a 9 mL culture tube). The number of trophozoites was counted using a haemocytometer and cells were incubated for 48 h with cell numbers being determined at 24 and 48 h.
Fig. 7 Recovery assay of Giardia duodenalis exposed to robenidine and metronidazole. Giardia trophozoites were exposed to robenidine or metronidazole for 5 h at 5x the IC50. Key: closed circle – growth control, triangle – metronidazole, square – robenidine, open circle – NCL 062, diamond – NCL 099. Cell numbers were determined at 24 and 48 h post exposure. Error ± SD.

[8] = In vitro cytotoxicity, murine macrophage cells; settings: mouse, RAW 264.7 murine macrophage cells
[9] = tested on: Giardia trophozoites; assay: Morphology of stained trophozoites at 100x magnification; type: cell-based, Giardia duodenalis
Procedure: as §5
Fig. 4 Morphological effect of Robenidine and NCL 099 on Giardia trophozoites. Giardia trophozoites were exposed to each compound for 24 h before fixation with glutaraldehyde and staining following the Diff quik protocol. A-control cells, B – cells treated with metronidazole (IC50, 2 μM), C- robendine treated cells (IC50, 2 μM), D – NCL 099 treated cells (IC50, 3 μM), E − NCL 099 treated cells (2 x IC50).

[10] = tested on: Giardia duodenalis BAH2c2 strain, assemblage A; assay: Resazurin reduction assay, assemblage A isolate; type: cell-based
[11] = BAH2c2, 1000 trophozoites per well
[12] = BAH2c2, 24 h, resazurin metabolic assay

Compound	Treatment success rate [1]	MLC (minimum lethal concentration), Assemblage A ([3]; BAH2c2, 24 h)	Effect on adherence of trophozoites [5]	MLC, Assemblage B [6]	IC50 [6]	IC50 [2, 11]	Recovery of trophozoites after short-term exposure [7]	GI50 [8]	IC50 [3, 12]	further results
CCS(=O)(=O)CCn1c([N+](=O)[O-])cnc1C [tinidazole]	80–90%									
CCCSc1ccc2nc(NC(=O)OC)[nH]c2c1 [Albendazole]		0.02 to 0.07 µM								Reported efficacy [1]: 62–95%; IC50 [2]: 800 ± 700 nM; IC50 [3]: < 20 nM
Cl.Cl.Cl.N=C(N)c1cccc(/C=N/N=C(\N)N/N=C/c2cccc(C(=N)N)c2)c1 [CGP 40215A]										Binding to the AT region of DNA [4]: strong bond
C/C(=N\NC(=N)N/N=C(\C)c1ccc(Cl)cc1)c1ccc(Cl)cc1.Cl [NCL 062, (E)-N'-((E)-1-(4-chlorophenyl)ethylidene)-2-(1-(4-chlorophenyl)ethylidene)hydrazine-1-carboximidhydrazide hydrochloride]		0.9 µM	complete inhibition of adherence	3.1 µM	1800 ± 0.8 nM	2000 ± 1300 nM	unable to recover	4000 nM	800 ± 600 nM	
CC(C)(C)c1ccc(/C=N/NC(=N)N/N=C/c2ccc(C(C)(C)C)cc2)cc1.Cl [NCL 099, N′,2-bis((E)-4-(tert-butyl)benzylidene)hydrazine-1-carboximidhydrazide hydrochloride]		8.3 µM	significantly affected adherence of trophozoites at 4 μM, but did not completely inhibit adherence	5.5 µM	3300 ± 200 nM	11100 ± 800 nM	able to recover after short-term exposure but growth was slower	7300 nM	3000 ± 300 nM	Morphological effect on stained trophozoites at 2 x the IC50 ([9]; 2 x IC50, 100 x magnification): disintegration of the cell membrane; Morphological effect on stained trophozoites at the IC50 ([9]; at IC50, 100 x magnification): decrease in the membrane stain intensity
Cc1ncc([N+](=O)[O-])n1CCO [Metronidazole]	80–90%	2.8 µM (≈ 0.479 µg/mL)	no significant effect on cell adherence	16.6 µM (≈ 2.84 µg/mL)	3800 ± 500 nM	1700 ± 2000 nM	did not have any permanent effects		2000 ± 1000 nM	Time required to exhibit inhibitory activity [10]: 24 h
